Reference: patent US12551576B2, “Chemiluminescent probes” (The General Hospital Corporation, priority 2020, dated 2026)
Several values for one entry are separate records, joined by “and”; a condition that tells them apart may be missing. Equal entries are not always repeated. Entries after “also recorded” stand apart in the source; their conditions may differ. Where two headings read alike, the source gives them in different places.

How the values were obtained:
Aβ40 aggregates [1] = target: T1, Aβ40 aggregates (Homo sapiens, UniProt P05067); assay: In vitro chemiluminescence study with Aβ aggregates in PBS; type: binding
Target sequence in this assay (P05067 672-711 limits assumed): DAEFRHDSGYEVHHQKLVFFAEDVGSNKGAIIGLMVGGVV

Apolipoprotein A-I (APO) = Apolipoprotein A-I (APO) (Homo sapiens, UniProt P02647); assay: Aβ aggregates incubated with APO
Sequence of Apolipoprotein A-I (APO) (P02647 25-267): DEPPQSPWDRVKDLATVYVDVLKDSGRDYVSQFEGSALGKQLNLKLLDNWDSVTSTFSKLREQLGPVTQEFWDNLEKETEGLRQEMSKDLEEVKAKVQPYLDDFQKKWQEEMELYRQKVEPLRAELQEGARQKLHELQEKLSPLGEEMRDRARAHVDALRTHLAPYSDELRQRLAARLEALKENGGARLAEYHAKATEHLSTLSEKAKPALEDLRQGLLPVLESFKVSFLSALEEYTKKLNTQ

[2] = target: Aβ40 aggregates, monomers and oligomers in human serum (Homo sapiens, UniProt P05067); assay: Chemiluminescence of Aβ40 species incubated with non-diluted human serum
Sequence of Aβ40 aggregates, monomers and oligomers in human serum (P05067 672-711 limits assumed): as the sequence (P05067 672-711 limits assumed) above

Aβ plaques = Aβ plaques (Homo sapiens, UniProt P05067); assay: Ex vivo histological study; type: in vivo, 5×FAD mouse; conditions: mouse sacrificed after two-photon imaging
Sequence of Aβ plaques (P05067 672-713 limits assumed): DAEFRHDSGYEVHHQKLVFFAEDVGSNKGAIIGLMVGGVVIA
Description: The fresh brain tissue was fixed in 4% formaldehyde for 24 hours and transferred into 30% sucrose at 4° C. until the tissue sunk. Then the tissue was embedded in an OCT block, which was sectioned into 25-μm slice with a cryostat. Then the slice was covered with FluoroShield mounting medium (Abcam).

[3] = ROS sensitivity of ADLumin-1; type: physicochemical; conditions: H2O2, ClO4−, TBHP, KO2; compared to O2 bubbling
Description: Oxygen and ROS sensitivity of ADLumin-1: A 100.0 μL DMSO solution of ADLumin-1 (200.0 μM) was added to a well in a 96-well plate. One group was bubbled with oxygen for 5 seconds at different time points, and the control group was sealed without bubbling. Once the bubbling was over, the plate was subjected to chemiluminescence intensity recording with the IVIS system with the open filter setting (500 nm-840 nm). For ROS tests, A PBS solution (240 μL) was incubated in an Eppendorf tube. To each of above tubes, different ROS (H2O2 30 μL, […] 30 μL, TBHP 30 μL and KO2 30 μL) was added, respectively. Then, a solution of ADLumin-1 in DMSO (30 μL, 250.0 μM) was added. Finally, 100.0 μL of the resulting solution was transferred into a well of 96-well plate, and triplicated samples were prepared. Chemiluminescence images were obtained with an IVIS system under the open filter (500 nm-840 nm).

Aβs = Aβs (Homo sapiens, UniProt P05067); assay: In vivo chemiluminescence imaging with ADLumin-1; parameters: species or system 5×FAD mice
Sequence of Aβs (P05067 672-713 limits assumed): as above
Description: The IVIS Spectrum animal imaging system (PerkinElmer) was used for in vivo imaging. Images were acquired with open filter or specific emission filters. […] Chemiluminescent signals from the eyes were recorded at 0 and 45 min after i.v. injection of the probe. Sequence images were captured at 15 min after probe injection with the following parameters: sequence filter from 500 nm to 840 nm with an interval of 20 nm; Exposure time is 30 s, FOV=D. […] To evaluate the imaging results, an ROI was drawn around the brain or the eye region. Student t-test was used to calculate P values.

prion = type: binding
[4] = tested on: beta-sheet misfoldons in mixed HC and disease serum; parameters: species or system human
PA-K = assay: Chemiluminescence detection of model aggregates (PA-K); type: binding; conditions: ADLumin-1 2.5 μM, PA-K 0.5 mg/ml
[5] = target: Aβ aggregates in mouse brain homogenate (Homo sapiens, UniProt P05067); assay: In vitro chemiluminescence study in brain homogenate; type: binding
Sequence of Aβ aggregates in mouse brain homogenate (P05067 672-711 limits assumed): as the sequence (P05067 672-711 limits assumed) above

PA-E2 = assay: Chemiluminescence detection of model aggregates (PA-E2 vs PA-E); type: binding
[6] = target: Aβ plaques and cerebral amyloid angiopathy (CAA) (Homo sapiens, UniProt P05067)
Sequence of Aβ plaques and cerebral amyloid angiopathy (CAA) (P05067 672-713 limits assumed): as the sequence (P05067 672-713 limits assumed) above

PA-K2 = assay: Chemiluminescence detection of model beta-sheet aggregates (PA-K2); type: binding
Aβ40 aggregates [7] = target: T1, Aβ40 aggregates; assay: In vivo mimic demonstration of DAS-CRET; conditions: FIG. 8E, subcutaneous injection in nude mouse
Description: After solutions were prepared, one female 8-month old nude mouse was anesthetized, and the left hind limb was subcutaneously injected with the first solution and the right hind limbs was subcutaneously injected with the second solution. The mouse was then placed into the IVIS imaging chamber and images were captured from the dorsal side and from the ventral side with the open filter (500 nm-840 nm) and specific filters.
Target sequence in this assay (P05067 672-711): as the sequence (P05067 672-711 limits assumed) above

insulin = target: T2, insulin (Homo sapiens, UniProt P01308); assay: Chemiluminescence with misfoldon aggregates in PBS (insulin); type: binding
T2 construct: immunoglobulin G (IgG), proinsulin, insulin, and apolipoprotein A-I (APO)
T2 sequence (P01308 25-54 limits assumed, species assumed): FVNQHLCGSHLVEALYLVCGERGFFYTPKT
T2 sequence (P01308 90-110 limits assumed, species assumed): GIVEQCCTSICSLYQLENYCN

Transthyretin = Transthyretin (Homo sapiens, UniProt P02766); assay: Aβ aggregates incubated with transthyretin
Aβ40 aggregates [8] = target: T1, Aβ40 aggregates; assay: In vitro fluorescence spectral testing of ADLumin-1 with Aβ40 aggregates; type: binding
Target sequence in this assay (P05067 672-711 limits assumed): as the sequence (P05067 672-711 limits assumed) above

[9] = target: alpha-synuclein in human serum (Homo sapiens, UniProt P37840); assay: Chemiluminescence of synuclein incubated with human serum
[10] = two-photon imaging, 5×FAD mouse, i.v. 4 mg/kg

## Cc1nc2c[nH]c(/C=C/C=C/c3ccc(N(C)C)cc3)cn-2c1=O [ADLumin-1, 6-((1E,3E)-4-(4-(dimethylamino)phenyl)buta-1,3-dien-1-yl)-2-methylimidazo[1,2-a]pyrazin-3(7H)-one]
Aβ40 aggregates [1]; IVIS imaging system, open filter, 96-well plate
  chemiluminescence signal, wells with Aβs vs wells without Aβs: 104 fold
Aβ40 aggregates [1]; PBS buffer with 2% DMSO, at 540 nm
  chemiluminescence intensity increase upon incubation with Aβs: about 216 fold
Aβ40 aggregates [1]; in vitro, summary statement
  amplification of chemiluminescence intensity upon mixing with Aβs in vitro: 216 fold and > 200 fold
Apolipoprotein A-I (APO)
  intensity Aβ/APO group vs control group: higher intensity
[2]; Aβ40 aggregate 2.5 μM
  chemiluminescence ratio of the Aβ group and the control group: about 3.43 fold
[2]; Aβ monomers
  chemiluminescence intensity Aβ group vs control group: 1.96 fold
[2]; Aβ oligomers
  chemiluminescence intensity Aβ group vs control group: 1.71 fold
Aβ plaques
  brightness of plaques in brain slides: considerably bright
[3]
  chemiluminescence response towards ROS species: no significant changes; also recorded: considerably low; also recorded: relatively small
Aβs; 5-month-old mice, summary statement
  chemiluminescence signal 5×FAD vs age-matched wild-type mice: 1.80 fold
Aβs; 640 nm filter
  brain chemiluminescence signal difference 5×FAD vs WT: 1.7 fold
Aβs; 15 minutes after i.v. injection, open filter
  brain chemiluminescence signal difference 5×FAD vs WT: 1.7 fold
Aβs; 30 minutes after i.v. injection, open filter
  brain chemiluminescence signal difference 5×FAD vs WT: 1.8 fold
Aβs; mouse, in vivo
  chemiluminescence signals from eyes 5×FAD vs WT: 1.6 fold
  chemiluminescence signals from noses 5×FAD vs WT: 1.7 fold
prion
  largest chemiluminescence difference with aggregates: 2.22 fold
  signal decay T½: 11.36 min
[4]
  total signal of mixed group vs sum of 90% HC serum and 10% AD serum: 1.66 fold
[4]; 10% diabetes serum
  signal mixture of HC serum and disease serum vs HC serum: 3.34 fold
[4]; 10% multiple sclerosis serum
  signal mixture of HC serum and disease serum vs HC serum: 7.24 fold
[4]; 10% pulmonary fibrosis serum
  signal mixture of HC serum and disease serum vs HC serum: 4.60 fold
[4]; 10% rheumatoid arthritis serum
  signal mixture of HC serum and disease serum vs HC serum: 6.64 fold
[4]; 90% HC serum and 10% AD serum
  chemiluminescence signal mixed group vs 100% HC serum: 7.75 fold
PA-K
  chemiluminescence signal increase vs ADLumin-1 only in PBS: 2.49 fold
[5]
  Aβ concentration range with linear intensity increase: 0 to 12.5 µM
[5]; Aβ aggregates 12.5 μM
  chemiluminescence signal, Aβ group vs no Aβ: about 11.6 fold
PA-E2
  chemiluminescence intensity PA-E2 group vs PA-E group: 4.39 fold
[6]; [10]
  SNR of CAAs: ~26.0
  SNR of plaques: about 17.0
[6]; two-photon time-course imaging
  time to peak intensity in CAA: ≤ 1 min
  time to peak intensity in plaques: 5 min
PA-K2
  intensity ratio of PA-K2/PA-K: about 47.5 fold
  low limit of detection (LOD) lower than that of ThT: 100 fold
PA-K2; ADLumin-1 2.5 μM, PA-K2 0.5 mg/ml, PBS
  chemiluminescence signal increase vs ADLumin-1 only in PBS: 101 fold
PA-K2; PA-K2 and PA-E2
  peptide concentration range of concentration dependent intensity: 0.001 to 1.0 mg/mL
PA-K2; chemiluminescence
  peptide concentration at which PA-K and PA-K2 are differentiated: 0.001 mg/mL
PA-K2; with 0.5 mg/ml PA-K2
  ADLumin-1 concentration range of linear response: 0.001 to 0.1 mg/mL
Aβ40 aggregates [7]
  SNR (ROI1/ROI2): > 2000 and 2189
insulin; ADLumin-1 2.5 μM, insulin aggregates 2.5 μM, PBS
  largest chemiluminescence difference with aggregates: 10.8 fold
insulin; with insulin aggregates
  signal decay T½: > 60 min
Transthyretin
  intensity Aβ/transthyretin group vs control group: higher intensity
Aβ40 aggregates [8]
  fluorescence intensity increasing upon mixing with Aβs: 100 fold
  shift of fluorescence emission of the probe with Aβs: significant blue-shift
[9]
  chemiluminescence difference vs control group: 4.30 fold
